Data reported in the NIST ThermoML archive (doi:10.1016/j.jct.2014.12.011).

Test: mn = molality of the nth substance listed, in mol/kg
Conditions: 100 kPa, Liquid, Alternating current cell with electrodes

CCCCCCCCCC(=O)[O-].[Cs+] [cesium decanoate] + O
electrical conductivity [S/m]
Conditions	278.15 K	288.15 K	298.15 K	308.15 K	318.15 K	328.15 K
m1 = 0.00805	0.0479	0.0614	0.0757	0.091	0.107	0.123
m1 = 0.01759	0.101	0.13	0.161	0.193	0.227	0.261
m1 = 0.0274	0.151	0.197	0.241	0.29	0.342	0.396
m1 = 0.03769	0.207	0.261	0.323	0.39	0.46	0.533
m1 = 0.04818	0.261	0.327	0.404	0.487	0.575	0.667
m1 = 0.06109	0.316	0.405	0.502	0.604	0.713	0.824
m1 = 0.0725	0.3714	0.476	0.588	0.707	0.829	0.958
m1 = 0.08819	0.4405	0.564	0.696	0.835	0.988	1.147
m1 = 0.1027	0.5001	0.639	0.7914	0.954	1.121	1.3
m1 = 0.1172	0.554	0.715	0.883	1.06	1.24	1.44
m1 = 0.1325	0.6113	0.79	0.965	1.16	1.36	1.58
m1 = 0.153	0.697	0.875	1.07	1.28	1.514	1.76
m1 = 0.1705	0.7509	0.944	1.16	1.39	1.642	1.914
m1 = 0.1873	0.799	1.009	1.241	1.49	1.77	2.06
m1 = 0.2051	0.8512	1.08	1.33	1.604	1.9	2.211
m1 = 0.2256	0.914	1.16	1.438	1.735	2.05	2.39
m1 = 0.2463	0.976	1.25	1.542	1.86	2.207	2.57
